Assay results as given in US9278996B2, “Dolastatin-10 derivative, method of producing the same and anticancer drug composition containing the same” (CELLTRION, INC., priority 2012, dated 2016).

test system: breast cancer (BT-474); test: Anticancer activity assay (WST-8 cell growth), BT-474; format: cell-based; settings: Homo sapiens, BT-474, 96 h, read-out: IC50 (nM) BT-474
Protocol: The compounds of the present invention were assayed for inhibitory activity against 7 cancer cell lines as breast cancer (BT-474), human epithelial cancer (A-431), non-small cell lung cancer (NCI-H460), colon cancer (HT-29), colon cancer (SW-620), breast cancer (MDA-MB-231) and breast cancer (MCF-7).
Briefly, a suspension of each cancer cell line was serially diluted, and plated at a density of 2˜3×10^3 cells/well into 96-well microplates, followed by incubation at 37° C. for 4 day in a 5% CO2 atmosphere. Cell growth in a monolayer was measured using WST-8 reagemt (Dojindo, Japan).
IC50 values of the compounds against the cancer cell lines were calculated as compound concentrations at which the cells were grown by 50% OD of the control.

| Structure (SMILES) | IC50 [nM] |
| --- | --- |
| CC[C@H](C)[C@@H]([C@@H](CC(=O)N1CSC[C@@H]1[C@H](OC)[C@@H](C)C(=O)NCCc1c(F)cccc1F)OC)N(C)C(=O)[C@@H](NC(=O)[C@@H](NC)C(C)C)C(C)C [Compound I-32, (S)—N-((3R,4S,5S)-1-((S)-4-((1R,2R)-3-((2,6-difluorophenethyl)amino)-1-methoxy-2-methyl-3-oxopropyl)thiazolidin-3-yl)-3-methoxy-5-methyl-1-oxoheptan-4-yl)-N,3-dimethyl-2-((S)-3-methyl-2-(methylamino)butaneamido)butanamide] | 0.64 |
| CC[C@H](C)[C@@H]([C@@H](CC(=O)N1C[C@H](OC)C[C@@H]1[C@H](OC)[C@@H](C)C(=O)N[C@H](C)C(=O)c1cccc(OC)c1)OC)N(C)C(=O)[C@@H](NC(=O)[C@@H](NC)C(C)C)C(C)C [Compound I-14, (S)—N-((3R,4S,5S)-3-methoxy-1-((2R,4R)-4-methoxy-2-((1R,2R)-1-methoxy-3-(((R)-1-(3-methoxyphenyl)-1-oxopropan-2-yl)amino)-2-methyl-3-oxopropyl)pyrrolidin-1-yl)-5-methyl-1-oxoheptan-4-yl)-N,3-dimethyl-2-((S)-3-methyl-2-(methylamino)butaneamido)butanamide] | 0.29 |
| CC[C@H](C)[C@@H]([C@@H](CC(=O)N1C[C@@H](NC)C[C@H]1[C@H](OC)[C@@H](C)C(=O)NCCc1c(F)cccc1F)OC)N(C)C(=O)[C@@H](NC(=O)[C@H](C(C)C)N(C)C)C(C)C [Compound I-45, (2S)—N-((3R,4S)-1-((2S,4S)-2-((1R,2R)-3-((2,6-difluorophenethyl)amino)-1-methoxy-2-methyl-3-oxopropyl)-4-(methylamino)pyrrolidin-1-yl)-3-methoxy-5-methyl-1-oxoheptan-4-yl)-2-((S)-2-(dimethylamino)-3-methylbutaneamido)-N,3-dimethylbutanamide] | 0.34 |
| CC[C@H](C)[C@@H]([C@@H](CC(=O)N1C[C@@H](O)C[C@H]1[C@H](OC)[C@@H](C)C(=O)NCCc1c(F)cccc1F)OC)N(C)C(=O)[C@@H](NC(=O)[C@H](C(C)C)N(C)C)C(C)C [Compound I-40] | 0.23 |
| CC[C@H](C)[C@@H]([C@@H](CC(=O)N1C[C@H](OC)C[C@H]1[C@H](OC)[C@@H](C)C(=O)NCC(=O)c1ccc(OC)cc1F)OC)N(C)C(=O)[C@@H](NC(=O)[C@@H](NC)C(C)C)C(C)C [Compound I-31] | 0.54 |
| CC[C@H](C)[C@@H]([C@@H](CC(=O)N1C[C@H](OC)C[C@@H]1[C@H](OC)[C@@H](C)C(=O)NCCc1c(F)cccc1F)OC)N(C)C(=O)[C@@H](NC(=O)[C@@H](NC)C(C)C)C(C)C [Compound I-1, (S)—N-((3R,4S,5S)-1-((2R,4R)-2-((1R,2R)-3-((2,6-difluorophenethyl)amino)-1-methoxy-2-methyl-3-oxopropyl)-4-methoxypyrrolidin-1-yl)-3-methoxy-5-methyl-1-oxoheptan-4-yl)-N,3-dimethyl-2-((S)-3-methyl-2-(methylamino)butaneamido)butanamide] | 0.12 |
| CC[C@H](C)[C@@H]([C@@H](CC(=O)N1C[C@H](OC)C[C@@H]1[C@H](OC)[C@@H](C)C(=O)N[C@H](C)/C(=N\O)c1cccc(OC)c1)OC)N(C)C(=O)[C@@H](NC(=O)[C@@H](NC)C(C)C)C(C)C [Compound I-19, (S)—N-((3R,4S,5 S)-1-((2R,4R)-2-((1R,2R)-3-(((R,Z)-1-(hydroxyimino)-1-(3-methoxyphenyl)propan-2-yl)amino)-1-methoxy-2-methyl-3-oxopropyl)-4-methoxypyrrolidin-1-yl)-3-methoxy-5-methyl-1-oxoheptan-4-yl)-N,3-dimethyl-2-((S)-3-methyl-2-(methylamino)butaneamido)butanamide] | 0.09 |
